What was measured:
[1] = biological target: T1, Orai1/STIM1 (Homo sapiens, UniProt Q96D31); assay: Fluorescence-based assay of store-operated calcium entry in Orai1/STIM1 stable cells; assay type: cell-based; conditions: HEK-293 cells stably expressing human STIM1 and Orai1; 50% inhibition of Peak-Basal fluorescence signal; read-out: Orai1/STIM1 (IC50, μmol)
T1 construct: expressed in transfected cells
Experimental: A. Fluorescence-Based Assay of Store-Operated Calcium Entry in Orai1/STIM1 Stable Cells.
Cells stably expressing recombinant human STIM1 and Orai1 are generated by transfecting a human Orai1 expression plasmid (pcDNA3.1-Orai1-cmyc) into HEK-293 cells stably overexpressing human STIM1 (Roos et al. 2005 JCB 169(3): 435-445). Colonies of cells stably expressing both STIM1 and Orai1 proteins are selected and then subcloned by limiting dilution. Cells were cultured at 37° C./6% CO2 in complete medium with 10% FBS and appropriate selection markers.
The day prior to performing the assay Orai1/STIM1 stable cells are plated in 50 μL of complete medium at 90-95% confluence in a 384 well plate. Cells are grown at 37° C./6% CO2 overnight. On the day of the assay, 1.5 μM fluo-4-AM (Invitrogen) in complete medium is added to the cells, which are then incubated for 1 hour at RT. Cells are washed once in Ca^2+-free HBSS (Hank's buffered saline solution) and 35 μl of Ca^2+-free HBSS is added to each well. Test compounds are added to wells in a 10 μL Ca^2+-free HBSS solution, prepared at 4.5× the desired final concentration, and incubated for 30 minutes at RT. The initial baseline fluorescence signal is then measured with a FLIPR^384 (Molecular Devices) plate reader. Calcium entry is initiated by adding 5 μl of 10× CaCl2 (10 mM) in HBSS, and changes in cellular fluorescence are measured with the FLIPR^384 plate reader. In each well, the magnitude of the fluorescence signal as a result of calcium entry into the cell is determined by calculating the difference between the peak fluorescence signal measured after calcium addition and the initial baseline fluorescence signal (designated Peak-Basal). IC50 values are typically calculated as the concentration that inhibited 50% of the Peak-Basal signal.

[2] = system: RBL-2H3 cells; assay: Fluorescence-based assay of store-operated calcium entry in RBL-2H3 cells; assay type: cell-based, rat; conditions: Rattus norvegicus, RBL-2H3; thapsigargin; 50% inhibition of Upslope; read-out: RBL-2H3 (IC50, μmol)
Experimental: B. Fluorescence-Based Assay of Store-Operated Calcium Entry in RBL-2H3 Cells.
RBL-2H3 cells are obtained from ATCC and maintained in complete medium with 10% FBS at 37° C./6% CO2.
The day prior to performing the assay, RBL-2H3 cells are plated in 50 μL of complete medium in a 384 well plate. Cells are grown at 37° C./6% CO2 overnight and grow to 50-60% confluence by the next day. On the assay day, 1.5 μM Fluo-4-AM dye (Invitrogen) in complete medium is added and incubated for 1 hour at RT. Cells are washed twice in Ca^2+-free HBSS buffer and 35 μL Ca^2+-free HBSS buffer is added to each well. 10 μL of a test compound prepared in a Ca^2+-free HBSS solution at 4.5× of the desired concentration is added to a well and incubated for 5 minutes at RT. 10 μL of thapsigargin prepared in a Ca^2+-free HBSS solution at 5.5× of the desired concentration (5.5 uM) is added to each well and incubated for an additional 25 minutes. The initial baseline fluorescence signal is measured with a FLIPR^384 (Molecular Devices) plate reader. 5 μL of 12× calcium in HBSS (12 mM) is added and changes in cellular fluorescence are measured with the FLIPR^384 plate reader. In each well, the change in the fluorescent signal as a function of time due to calcium entry into the cell is determined by calculating the difference between the fluorescent signal measured 7 seconds after calcium addition and the initial baseline fluorescence signal at time zero (t=0). This parameter is designated Upslope. The IC50 value is calculated as the concentration at which 50% of the Upslope is inhibited.

T1 sequence (Q96D31 whole entry): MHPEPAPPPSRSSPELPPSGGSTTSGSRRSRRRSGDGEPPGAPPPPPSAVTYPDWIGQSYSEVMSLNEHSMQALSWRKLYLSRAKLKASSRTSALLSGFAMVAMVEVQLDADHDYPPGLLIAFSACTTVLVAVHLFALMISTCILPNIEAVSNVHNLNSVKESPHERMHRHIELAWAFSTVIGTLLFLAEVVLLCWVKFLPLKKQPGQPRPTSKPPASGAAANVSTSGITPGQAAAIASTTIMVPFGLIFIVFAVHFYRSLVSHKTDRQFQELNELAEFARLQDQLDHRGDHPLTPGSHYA

Row | SMILES | IC50 [1] [µM] | IC50 [2] [µM]
1 | Cc1nn(-c2nccs2)cc1-c1ccc(NC(=O)c2c(F)cccc2F)cc1 [Example 1, 2,6-difluoro-N-(4-(3-methyl-1-(thiazol-2-yl)-1H-pyrazol-4-yl)phenyl)benzamide] | < 0.6 | < 0.6
2 | Cc1nn(-c2nccs2)cc1-c1ccc(NC(=O)c2ccccc2F)cc1 [Example 2, 2-fluoro-N-(4-(3-methyl-1-(thiazol-2-yl)-1H-pyrazol-4-yl)phenyl)benzamide] | < 0.6 | < 0.6
3 | Cc1cccc(F)c1C(=O)Nc1ccc(-c2cn(-c3nccs3)nc2C)cc1 [Example 3, 2-fluoro-6-methyl-N-(4-(3-methyl-1-(thiazol-2-yl)-1H-pyrazol-4-yl)phenyl)benzamide] | < 0.6 | < 0.6
4 | Cc1nn(-c2nccs2)cc1-c1ccc(NC(=O)c2c(F)ccc(F)c2F)cc1 [Example 4, 2,3,6-trifluoro-N-(4-(3-methyl-1-(thiazol-2-yl)-1H-pyrazol-4-yl)phenyl)benzamide] | < 0.6 | < 0.6
5 | Cc1nn(-c2nccs2)cc1-c1ccc(NC(=O)c2ccccc2OC(F)F)cc1 [Example 5, 2-(difluoromethoxy)-N-(4-(3-methyl-1-(thiazol-2-yl)-1H-pyrazol-4-yl)phenyl)benzamide] | < 0.6 | < 0.6
6 | CCc1nn(-c2nccs2)cc1-c1ccc(NC(=O)c2c(F)cccc2F)cc1 [Example 6, N-(4-(3-ethyl-1-(thiazol-2-yl)-1H-pyrazol-4-yl)phenyl)-2,6-difluorobenzamide] | < 0.6 | < 0.6
7 | CCc1nn(-c2nccs2)cc1-c1ccc(NC(=O)c2ccccc2F)cc1 [Example 7, N-(4-(3-ethyl-1-(thiazol-2-yl)-1H-pyrazol-4-yl)phenyl)-2-fluorobenzamide] | < 0.6 | < 0.6
8 | CCc1nn(-c2nccs2)cc1-c1ccc(NC(=O)c2c(C)cccc2F)cc1 [Example 8, N-(4-(3-ethyl-1-(thiazol-2-yl)-1H-pyrazol-4-yl)phenyl)-2-fluoro-6-methylbenzamide] | 0.6 to 1.2 | < 0.6
9 | Cc1nn(-c2nccs2)cc1-c1ccc(NC(=O)c2c(F)cccc2F)cc1F [Example 10, 2,6-difluoro-N-(3-fluoro-4-(3-methyl-1-(thiazol-2-yl)-1H-pyrazol-4-yl)phenyl)benzamide] | < 0.6 | < 0.6
10 | Cc1nn(-c2nccs2)cc1-c1ccc(NC(=O)c2ccccc2F)cc1F [Example 11, 2-fluoro-N-(3-fluoro-4-(3-methyl-1-(thiazol-2-yl)-1H-pyrazol-4-yl)phenyl)benzamide] | < 0.6 | < 0.6
11 | Cc1cccc(F)c1C(=O)Nc1ccc(-c2cn(-c3nccs3)nc2C)c(F)c1 [Example 12, 2-fluoro-N-(3-fluoro-4-(3-methyl-1-(thiazol-2-yl)-1H-pyrazol-4-yl)phenyl)-6-methylbenzamide] | 0.6 to 1.2 | < 0.6
12 | Cc1nn(-c2nccs2)cc1-c1ccc(NC(=O)c2c(F)ccc(F)c2F)cc1F [Example 13, 2,3,6-trifluoro-N-(3-fluoro-4-(3-methyl-1-(thiazol-2-yl)-1H-pyrazol-4-yl)phenyl)benzamide] | < 0.6 | < 0.6
13 | Cc1nn(-c2nccs2)cc1-c1ccc(NC(=O)c2c(F)cc(F)cc2F)cc1F [Example 14, 2,4,6-trifluoro-N-(3-fluoro-4-(3-methyl-1-(thiazol-2-yl)-1H-pyrazol-4-yl)phenyl)benzamide] | < 0.6 | < 0.6
14 | Cc1nn(-c2nccs2)cc1-c1ccc(NC(=O)c2ccc(F)c(F)c2F)cc1F [Example 15, 2,3,4-trifluoro-N-(3-fluoro-4-(3-methyl-1-(thiazol-2-yl)-1H-pyrazol-4-yl)phenyl)benzamide] | < 0.6 | < 0.6
15 | Cc1nn(-c2nccs2)cc1-c1ccc(NC(=O)c2cc(F)nc(F)c2)cc1F [Example 16, 2,6-difluoro-N-(3-fluoro-4-(3-methyl-1-(thiazol-2-yl)-1H-pyrazol-4-yl)phenyl)isonicotinamide] | < 0.6 | < 0.6
16 | Cc1nn(-c2nccs2)cc1-c1ccc(NC(=O)c2ccccc2OC(F)F)cc1F [Example 17, 2-(difluoromethoxy)-N-(3-fluoro-4-(3-methyl-1-(thiazol-2-yl)-1H-pyrazol-4-yl)phenyl)benzamide] | 0.6 to 1.2 | < 0.6
17 | Cc1nn(-c2nccs2)cc1-c1ccc(NC(=O)c2c(F)cccc2F)nc1 [Example 18, 2,6-difluoro-N-(5-(3-methyl-1-(thiazol-2-yl)-1H-pyrazol-4-yl)pyridin-2-yl)benzamide] | < 0.6 | < 0.6
18 | Cc1cccc(F)c1C(=O)Nc1ccc(-c2cn(-c3nccs3)nc2C)cn1 [Example 19, 2-fluoro-6-methyl-N-(5-(3-methyl-1-(thiazol-2-yl)-1H-pyrazol-4-yl)pyridin-2-yl)benzamide] | < 0.6 | < 0.6
19 | Cc1nn(-c2nccs2)cc1-c1ccc(NC(=O)c2c(F)ccc(F)c2F)nc1 [Example 20, 2,3,6-trifluoro-N-(5-(3-methyl-1-(thiazol-2-yl)-1H-pyrazol-4-yl)pyridin-2-yl)benzamide] | < 0.6 | < 0.6
20 | Cc1nn(-c2nccs2)cc1-c1ccc(NC(=O)c2c(F)cc(F)cc2F)nc1 [Example 21, 2,4,6-trifluoro-N-(5-(3-methyl-1-(thiazol-2-yl)-1H-pyrazol-4-yl)pyridin-2-yl)benzamide] | < 0.6 | < 0.6
21 | Cc1nn(-c2nccs2)cc1-c1ccc(NC(=O)c2ccc(F)c(F)c2F)nc1 [Example 22, 2,3,4-trifluoro-N-(5-(3-methyl-1-(thiazol-2-yl)-1H-pyrazol-4-yl)pyridin-2-yl)benzamide] | 0.6 to 1.2 | –
22 | Cc1nn(-c2nccs2)cc1-c1ccc(NC(=O)c2cc(F)nc(F)c2)nc1 [Example 23, 2,6-difluoro-N-(5-(3-methyl-1-(thiazol-2-yl)-1H-pyrazol-4-yl)pyridin-2-yl)isonicotinamide] | < 0.6 | < 0.6
23 | Cc1nn(-c2nccs2)cc1-c1cnc(NC(=O)c2c(F)cccc2F)cn1 [Example 24, 2,6-difluoro-N-(5-(3-methyl-1-(thiazol-2-yl)-1H-pyrazol-4-yl)pyrazin-2-yl)benzamide] | < 0.6 | < 0.6
24 | Cc1nn(-c2nccs2)cc1-c1cnc(NC(=O)c2ccccc2F)cn1 [Example 25, 2-fluoro-N-(5-(3-methyl-1-(thiazol-2-yl)-1H-pyrazol-4-yl)pyrazin-2-yl)benzamide] | < 0.6 | < 0.6
25 | Cc1cccc(F)c1C(=O)Nc1cnc(-c2cn(-c3nccs3)nc2C)cn1 [Example 26, 2-fluoro-6-methyl-N-(5-(3-methyl-1-(thiazol-2-yl)-1H-pyrazol-4-yl)pyrazin-2-yl)benzamide] | < 0.6 | < 0.6
26 | Cc1nn(-c2nccs2)cc1-c1cnc(NC(=O)c2c(F)ccc(F)c2F)cn1 [Example 27, 2,3,6-trifluoro-N-(5-(3-methyl-1-(thiazol-2-yl)-1H-pyrazol-4-yl)pyrazin-2-yl)benzamide] | < 0.6 | < 0.6
27 | Cc1nn(-c2nccs2)cc1-c1cnc(NC(=O)c2c(F)cc(F)cc2F)cn1 [Example 28, 2,4,6-trifluoro-N-(5-(3-methyl-1-(thiazol-2-yl)-1H-pyrazol-4-yl)pyrazin-2-yl)benzamide] | < 0.6 | < 0.6
28 | Cc1nn(-c2nccs2)cc1-c1cnc(NC(=O)c2ccc(F)c(F)c2F)cn1 [Example 29, 2,3,4-trifluoro-N-(5-(3-methyl-1-(thiazol-2-yl)-1H-pyrazol-4-yl)pyrazin-2-yl)benzamide] | > 1.2 | –

— patent US9611263B2, “Compounds that modulate intracellular calcium” (CALCIMEDICA, INC., priority 2013, dated 2017)
